Data as given in ChEMBL document CHEMBL1138000, “Novel, potent and selective anilinoquinazoline and anilinopyrimidine inhibitors of p38 MAP kinase” (Bioorg Med Chem Lett, 2004).
Values after ≈ are worked out from the molar mass of the structure shown.

Columns and labels:
Homo sapiens = species on record: Homo sapiens; assay: Concentration required to inhibit TNF-alpha production was determined in human whole blood; type: functional
[1] = target: Mitogen-activated protein kinase 14 (Homo sapiens, UniProt Q16539)
Description: Inhibitory concentration against alpha mitogen activated protein kinase p38 activity

[2] = target: Epidermal growth factor receptor (Homo sapiens, UniProt P00533); assay: Inhibitory concentration against Epidermal growth factor receptor tyrosine kinase activity
[3] = Clearance after i.v. dosing at 1 mg/kg; type: ADME, organism-based; set-up: dose 1 mg/kg, route intravenous; details: rat, in vivo, iv
[4] = Clearance after oral dosing at 1 mg/kg; type: ADME, organism-based; set-up: dose 1 mg/kg, route oral; details: rat, in vivo, read-out: Clearance
[5] = Volume of distribution at steady state after i.v. dosing at 1 mg/kg; type: ADME, organism-based; set-up: dose 1 mg/kg, route intravenous; details: rat, in vivo, iv, read-out: Distribution
[6] = Volume of distribution at steady state after oral dosing at 1 mg/kg; type: ADME, organism-based; set-up: dose 1 mg/kg, route oral; details: rat, in vivo
[7] = oral bioavailability after oral dosing at 1 mg/kg; type: ADME, organism-based; details: rat, in vivo, read-out: Bioavailabiility
[8] = oral bioavailability after p.o. dosing at 1 mg/kg; details: rat, in vivo, read-out: Bioavailabiility
[9] = Protein binding was determined in rat plasma; type: ADME, cell-free
[10] = Log D value at pH 7.4; type: physicochemical; details: buffer

Chain of Epidermal growth factor receptor (P00533 whole entry): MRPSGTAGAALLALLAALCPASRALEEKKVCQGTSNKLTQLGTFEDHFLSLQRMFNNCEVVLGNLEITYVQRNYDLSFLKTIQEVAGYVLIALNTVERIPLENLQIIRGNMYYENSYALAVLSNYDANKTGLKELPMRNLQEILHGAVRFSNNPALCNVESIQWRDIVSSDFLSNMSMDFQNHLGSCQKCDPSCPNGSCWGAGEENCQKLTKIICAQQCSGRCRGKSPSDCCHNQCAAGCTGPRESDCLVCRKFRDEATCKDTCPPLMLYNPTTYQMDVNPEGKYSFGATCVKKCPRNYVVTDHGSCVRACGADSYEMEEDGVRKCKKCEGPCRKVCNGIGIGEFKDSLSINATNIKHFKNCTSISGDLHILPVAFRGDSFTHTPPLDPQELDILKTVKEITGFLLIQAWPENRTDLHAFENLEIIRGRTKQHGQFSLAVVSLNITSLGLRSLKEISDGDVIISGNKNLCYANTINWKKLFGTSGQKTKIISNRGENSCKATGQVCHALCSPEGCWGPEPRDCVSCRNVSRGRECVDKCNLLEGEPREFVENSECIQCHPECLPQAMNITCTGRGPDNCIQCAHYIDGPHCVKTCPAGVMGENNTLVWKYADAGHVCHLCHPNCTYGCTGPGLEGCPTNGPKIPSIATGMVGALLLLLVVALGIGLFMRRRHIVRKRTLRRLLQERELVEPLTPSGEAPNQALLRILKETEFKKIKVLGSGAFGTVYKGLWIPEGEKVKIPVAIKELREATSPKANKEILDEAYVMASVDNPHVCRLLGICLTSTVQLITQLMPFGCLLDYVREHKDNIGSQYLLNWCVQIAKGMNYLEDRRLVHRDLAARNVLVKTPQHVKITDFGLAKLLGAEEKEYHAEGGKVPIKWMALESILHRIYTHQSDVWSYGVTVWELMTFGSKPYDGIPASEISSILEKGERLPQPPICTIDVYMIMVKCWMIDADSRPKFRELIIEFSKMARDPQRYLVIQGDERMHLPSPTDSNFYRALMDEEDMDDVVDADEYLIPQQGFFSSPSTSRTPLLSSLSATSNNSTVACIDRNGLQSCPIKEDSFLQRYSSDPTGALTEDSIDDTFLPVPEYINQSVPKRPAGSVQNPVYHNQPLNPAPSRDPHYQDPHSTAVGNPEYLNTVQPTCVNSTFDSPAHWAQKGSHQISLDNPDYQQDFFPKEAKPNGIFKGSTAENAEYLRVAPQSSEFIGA
Chain of Mitogen-activated protein kinase 14 (Q16539 whole entry): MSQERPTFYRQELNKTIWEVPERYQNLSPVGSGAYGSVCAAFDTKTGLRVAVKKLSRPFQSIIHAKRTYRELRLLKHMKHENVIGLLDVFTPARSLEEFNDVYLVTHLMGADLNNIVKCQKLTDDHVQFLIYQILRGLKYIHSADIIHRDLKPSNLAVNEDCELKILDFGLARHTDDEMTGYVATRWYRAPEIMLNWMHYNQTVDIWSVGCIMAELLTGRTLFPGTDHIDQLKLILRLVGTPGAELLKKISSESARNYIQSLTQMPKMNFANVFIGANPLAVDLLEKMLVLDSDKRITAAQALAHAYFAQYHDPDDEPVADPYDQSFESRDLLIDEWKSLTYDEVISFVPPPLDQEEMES

With `Cc1ccc(NC(=O)c2ccnc(N3CCOCC3)c2)cc1Nc1cc(Cl)ncn1` the IC50 (Homo sapiens) was > 50000 nM and the IC50 [1] was 240 nM.

Compound `CCN(CC)CCCNc1cc(Nc2cc(NC(=O)c3ccnc(N4CCOCC4)c3)ccc2C)ncn1` has an IC50 (Homo sapiens) of 23000 nM and an IC50 [1] of 280 nM.

With `CCCN1CCC(Oc2nccc(Nc3cc(NC(=O)c4cccc(N5CCOCC5)c4)ccc3C)n2)CC1` the IC50 (Homo sapiens) was 300 nM and the IC50 [1] was 40 nM.

Work on `COc1cc2ncnc(Nc3cc(NC(=O)c4ccnc(N5CCOCC5)c4)ccc3C)c2cc1OCCN(C)C` yielded an IC50 (Homo sapiens) of 6900 nM and an IC50 [1] of 30 nM.

Work on `Cc1ccc(NC(=O)c2ccnc(N3CCOCC3)c2)cc1Nc1ccnc(OCC(C)(C)CN(C)C)n1` yielded an IC50 (Homo sapiens) of 3700 nM and an IC50 [1] of 70 nM.

For `COc1cc2ncnc(Nc3cc(NC(=O)c4cccc(N(C)C)c4)ccc3C)c2cc1OC`, the IC50 [2] was > 33000 nM, the IC50 (Homo sapiens) was 35000 nM and the IC50 [1] was 30 nM.

For `COc1cc2ncnc(Nc3cccc(NC(=O)c4ccccc4)c3F)c2cc1OC`, the IC50 [2] was 2800 nM, the IC50 (Homo sapiens) was > 50000 nM and the IC50 [1] was 690 nM.

In the case of `COc1cc2ncnc(Nc3ccc(Cl)c(NC(=O)c4cccc(N(C)C)c4)c3)c2cc1OC`, the IC50 [2] is reported as 1000 nM, the IC50 (Homo sapiens) is reported as > 50000 nM and the IC50 [1] is reported as 1690 nM.

`Cc1ccc(NC(=O)c2ccnc(N3CCOCC3)c2)cc1Nc1ccnc(N(C)C2CCN(C)CC2)n1` gave an IC50 (Homo sapiens) of 5300 nM and an IC50 [1] of 80 nM.

For `COc1cc2ncnc(Nc3cc(NC(=O)c4cccc(N(C)C)c4)ccc3Cl)c2cc1OC`, the IC50 [2] was 29000 nM, the IC50 (Homo sapiens) was > 50000 nM and the IC50 [1] was 40 nM.

In the case of `COc1cc2ncnc(Nc3cccc(Cl)c3)c2cc1OC` [TYRPHOSTIN AG-1478], the IC50 (Homo sapiens) is reported as > 50000 nM and the IC50 [1] is reported as 560 nM.

For `COc1cc2ncnc(Nc3cc(NC(=O)c4ccccc4)ccc3Cl)c2cc1OC`, the IC50 [2] was 11000 nM, the IC50 (Homo sapiens) was > 50000 nM and the IC50 [1] was 80 nM.

For `Cc1ccc(NC(=O)c2ccnc(N3CCOCC3)c2)cc1Nc1ccnc(Cl)n1`, the IC50 (Homo sapiens) was 11000 nM and the IC50 [1] was 10 nM.

For `Cc1ccc(NC(=O)c2ccnc(N3CCOCC3)c2)cc1Nc1ccnc(OC2CCN(C)CC2)n1`, the IC50 (Homo sapiens) was 500 nM and the IC50 [1] was 40 nM.

Work on `Cc1ccc(NC(=O)c2ccnc(N3CCOCC3)c2)cc1Nc1ccnc(OCC2CCCN(C)C2)n1` (configuration not stated) yielded an IC50 (Homo sapiens) of 1100 nM and an IC50 [1] of 30 nM.

With `COc1cc2ncnc(Nc3cccc(NC(=O)c4ccccc4)c3)c2cc1OC` the IC50 [2] was 5600 nM, the IC50 (Homo sapiens) was > 50000 nM and the IC50 [1] was 140 nM.

`COc1cc2ncnc(Nc3cc(NC(=O)c4ccnc(N5CCOCC5)c4)ccc3C)c2cc1OCCN1CCCCC1` showed an IC50 (Homo sapiens) of 4600 nM and an IC50 [1] of 50 nM.

For `COc1cc2ncnc(Nc3cc(NC(=O)c4ccccc4)ccc3C)c2cc1OC`, the IC50 [2] was > 33000 nM, the IC50 (Homo sapiens) was 21000 nM and the IC50 [1] was 70 nM.

In the case of `CCCN1CCC(Oc2nccc(Nc3cc(NC(=O)c4ccnc(N5CCOCC5)c4)ccc3C)n2)CC1`, the IC50 (Homo sapiens) is reported as 410 nM and the IC50 [1] is reported as 50 nM.

For `COc1cc2ncnc(Nc3ccc(C)c(NC(=O)c4ccccc4)c3)c2cc1OC`, the IC50 [2] was 3200 nM, the IC50 (Homo sapiens) was > 50000 nM and the IC50 [1] was 2090 nM.

`Cc1ccc(NC(=O)c2ccnc(N3CCOCC3)c2)cc1Nc1ccnc(OCCCN(C)C)n1` showed an IC50 (Homo sapiens) of 3200 nM and an IC50 [1] of 30 nM.

In the case of `Cc1ccc(NC(=O)c2ccnc(N3CCOCC3)c2)cc1Nc1ccnc(NCCCN2CCCC2)n1`, the IC50 (Homo sapiens) is reported as 16000 nM and the IC50 [1] is reported as 50 nM.

With `COc1cc2ncnc(Nc3cc(NC(=O)c4ccnc(N5CCOCC5)c4)ccc3C)c2cc1OCCN1CCOCC1` the IC50 (Homo sapiens) was 7800 nM and the IC50 [1] was 20 nM.

For `C[S+]([O-])c1ccc(-c2nc(-c3ccc(F)cc3)c(-c3ccncc3)[nH]2)cc1` (configuration not stated) [SB-203580], the IC50 (Homo sapiens) was 2000 nM.

Compound `Cc1ccc(NC(=O)c2ccnc(N3CCOCC3)c2)cc1Nc1ccncn1` has an IC50 (Homo sapiens) of 27000 nM and an IC50 [1] of 210 nM.

With `Cc1ccc(NC(=O)c2ccnc(N3CCOCC3)c2)cc1Nc1cc(NCCCN2CCCC2)ncn1` the IC50 (Homo sapiens) was > 50000 nM and the IC50 [1] was 450 nM.

For `CSc1nccc(Nc2cc(NC(=O)c3cc(F)cc(N4CCOCC4)c3)ccc2C)n1`, the clearance [3] was 25 mL/min/kg, the CL/F [4] was 25 mL/min/kg and the IC50 (Homo sapiens) was 3400 nM. It also gave a Vd [5] of 0.8 L/kg, a Distribution [6] of 0.8 L/kg and a bioavailability [7] of 26%. The IC50 [1] was 10 nM and the bioavailability [8] was 26%.

With `COc1cc2ncnc(Nc3cccc(NC(=O)c4cccc(N(C)C)c4)c3)c2cc1OC` the IC50 [2] was > 33000 nM, the IC50 (Homo sapiens) was > 50000 nM and the IC50 [1] was 210 nM.

With `COc1cc2ncnc(Nc3ccc(Cl)c(NC(=O)c4ccccc4)c3)c2cc1OC` the IC50 [2] was 2200 nM, the IC50 (Homo sapiens) was > 50000 nM and the IC50 [1] was 610 nM.

With `Cc1ccc(NC(=O)c2ccnc(N3CCOCC3)c2)cc1Nc1ccnc(NCCCN2CCOCC2)n1` the IC50 (Homo sapiens) was > 50000 nM and the IC50 [1] was 90 nM.

With `COc1cc2ncnc(Nc3cc(NC(=O)c4ccccc4)c(F)cc3F)c2cc1OC` the IC50 [2] was 490 nM, the IC50 (Homo sapiens) was > 50000 nM and the IC50 [1] was 50 nM.

In the case of `COc1cc2ncnc(Nc3cc(NC(=O)c4ccccc4)c(Cl)cc3F)c2cc1OC`, the IC50 (Homo sapiens) is reported as > 50000 nM and the IC50 [1] is reported as 510 nM.

With `COc1cc2ncnc(Nc3cc(NC(=O)c4cccc(N5CCOCC5)c4)ccc3C)c2cc1OC` the IC50 [2] was > 33000 nM, the IC50 (Homo sapiens) was 16000 nM and the IC50 [1] was 10 nM.

In the case of `C=CCN(C)c1nccc(Nc2cc(NC(=O)c3ccnc(N4CCOCC4)c3)ccc2C)n1`, the IC50 (Homo sapiens) is reported as > 50000 nM and the IC50 [1] is reported as 110 nM.

For `Cc1ccc(NC(=O)c2ccnc(N3CCOCC3)c2)cc1Nc1cc(N2CCCN(C)CC2)ncn1`, the IC50 (Homo sapiens) was > 50000 nM and the IC50 [1] was 1220 nM.

In the case of `COc1cc2ncnc(Nc3cc(NC(=O)c4ccnc(N5CCOCC5)c4)ccc3C)c2cc1OCCN(C(C)C)C(C)C`, the Binding [9] is reported as 83%, the IC50 (Homo sapiens) is reported as 3500 nM and the logD [10] is reported as 3.5. For the same compound, the IC50 [1] was 50 nM and the solubility (Aqueous solubility) was 240 µM (≈ 147 µg/mL).
